Here are results for 14 compounds from patent US20080280859A1, “GEMINI VITAMIN D3 COMPOUNDS AND METHODS OF USE THEREOF” (BioXell S.p.A., priority 2005, published 2008).

Marks after values point to notes of the source that are not given here.

For data set [1], the system named is ILT3 expression on monocyte-derived immature dendritic cells. Description: ILT3 upregulation on monocyte-derived immature dendritic cells (flow cytometry). The class given is cell-based, human. The following applies: 24 hours; for upregulation of ILT3 expression: graded doses, up to 1000 nM. The method, then: Immature dendritic cells (DC) were prepared as described in Romani, N. et al., (1996) J. Immunol. Meth. 196:137). Briefly, peripheral blood mononuclear cells (PBMCs) were obtained from a buffy coat by ficoll-hypaque gradient (Pharmacia Biotec AB, Upsala, Sweden) and monocytes isolated from PBMCs by negative selected with a monocyte isolation kit (Milteny, Biotech, Bergish Gladblach, Germany). After isolation, monocytes were cultured for 6 to 7 days at a cell density of 1-2×106 in RPMI medium supplemented with 5% FetalClone I (Hyclone Laboratories, Logan, Utah) 2 mM L-glutamine, […], 1 mM sodium pyruvate and 1% nonessential amino acids, containing 800 U/ml GM-CSF (Mielogen 300, Schering-Plough) and 10 ng/ml interleukin (IL)-4 (PharMingen, San Diego, Calif.). Every other day, approximately 20% of the medium was removed and replaced by the same volume of fresh medium containing GM-CSF and IL-4.
Immunoglobulin-like transcript-3 upregulation was evaluated by flow cytometric analysis. Briefly, cells were preincubated with […] human IgG (Sigma Chemical, St. Louis, Mo.) and subsequently stained with anti-human ILT3 antibody (see, e.g., Cella, M. et al. (1997) J. Exp. Med. 185:1743) followed by anti-mouse IgG-phycoerithryn (Jackson). Cells were then analyzed with a FACScanR flow cytometer using a Cell QuestR software program (both from Beckton Dickinson, Mountain View, Calif.).

The next data set deals with RT4. Description: Proliferation assay, bladder cancer cell line RT4. The class given is cell-based. Particulars: Homo sapiens, RT-4; 72 h culture, CyQuant proliferation assay. The protocol: (§1) Bladder cancer cell lines (T24, RT112, HT1376 and RT4 are human bladder cancer cell lines; NHEK are normal human keratinocytes) were obtained from the European Collection of Cell Cultures (Salisbury, UK). […] After a further 72 h of culture, cell proliferation was measured using a fluorescence-based proliferation assay kit. (CyQuant Cell Proliferation Assay Kit, Molecular Probes, Eugene, Oreg., USA). The IC50 was calculated from the regression curve of the titration data.

For a further data set, the system named is HL-60 cells. Description: HL-60 (CD14) cell differentiation. The class given is cell-based. Particulars: Homo sapiens, HL-60 cell differentiation, read-out: HL-60(CD14) ED50.
The next data set concerns NHEK. Description: Proliferation assay, normal human keratinocytes NHEK. Type of data set: cell-based. The following applies: 72 h culture, CyQuant proliferation assay. The protocol:
as §1

For another data set, the system named is HT 1376. Description: Proliferation assay, bladder cancer cell line HT 1376. Type of data set: cell-based. The following applies: Homo sapiens, 72 h culture, CyQuant proliferation assay. The method, then:
as §1

The test system of a further data set is RT112. Description: Proliferation assay, bladder cancer cell line RT112. Type of data set: cell-based. The following applies: Homo sapiens, RT-112; 72 h culture, CyQuant proliferation assay. The method, then:
as §1

The next data set has as its system IFN-γ production. Description: IFN-γ production in the mixed leukocyte response (MLR). Type of data set: cell-based. Particulars: MLR of allogeneic PBMC, 5 days, ELISA; for IC50: 120 h, read-out: INF-γ IC50. The method, then:
Immature dendritic cells (DC) were prepared as described in Romani, N. et al., J. Immunol. Meth.

Another data set is described as follows: in vivo. Particulars: female, C57BL/6, mouse, po.
Data set [2] has as its system renin mRNA in As4.1hVDR cells. Description: Renin suppression assay (renin mRNA, Northern blot). The following applies: 10^−10, 10^−9 and 10^−8 M, 24 hours.
For a further data set, the target named is T1, VDR (Homo sapiens, UniProt P11473).
T1 sequence (P11473 1-427): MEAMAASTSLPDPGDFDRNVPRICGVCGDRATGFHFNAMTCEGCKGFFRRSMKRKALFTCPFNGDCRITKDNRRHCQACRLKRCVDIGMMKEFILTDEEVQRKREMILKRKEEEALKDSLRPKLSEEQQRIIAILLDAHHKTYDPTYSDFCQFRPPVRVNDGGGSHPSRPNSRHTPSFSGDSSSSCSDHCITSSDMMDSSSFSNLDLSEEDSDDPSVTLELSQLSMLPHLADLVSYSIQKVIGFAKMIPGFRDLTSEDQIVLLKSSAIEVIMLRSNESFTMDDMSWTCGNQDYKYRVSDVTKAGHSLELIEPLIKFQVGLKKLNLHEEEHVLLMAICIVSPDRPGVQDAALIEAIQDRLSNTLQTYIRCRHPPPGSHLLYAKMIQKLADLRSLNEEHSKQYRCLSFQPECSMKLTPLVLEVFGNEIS
Description: VDR binding. The following applies: 1,25(OH)2D3 100.0.

The subject of the next data set is ECV. Description: Proliferation assay, bladder cancer cell line ECV. Type of data set: cell-based. The following applies: Homo sapiens; 72 h culture, CyQuant proliferation assay.

As for `C=C1/C(=C\C=C2/CCC[C@]3(C)[C@@H]([C@@H](CCCC(C)(C)O)CC[C@@H](O)C(C)(C)O)CC[C@@H]23)C[C@@H](O)C[C@@H]1O` (stereo in doubt) [Compound 2, 1,25-Dihydroxy-21-(2R,3-dihydroxy-3-methyl-butyl)-20S-cholecalciferol], the “ILT3 mean fluorescence intensity” value in data set [1] (1 nM of compound) is listed as 260. The “upregulation of ILT3 expression” value in data set [1] (listed as 1,24R,25-trihydroxy-20R-21-(3-hydroxy-3-methylbutyl)) is reported as “very favourable upregulation”; in [1] (listed as ix) it was “greatest upregulation of ILT3”.
As for `C=C1/C(=C\C=C2/CCC[C@]3(C)[C@@H]([C@H](C)CCCC(C)(C)O)CC[C@@H]23)C[C@@H](O)C[C@@H]1O` [1,25(OH)2D3, reference compound], the IC50 in the data set with RT4 came out at 45 µM; with NHEK, 4.9 µM; with HT 1376 it was 50 µM; in the data set on RT112, 19 µM; with IFN-γ production, 29 pM. In the data set on HL-60 cells, the EC50 was found to be 0.00137 µM. For the same compound, the “down regulation of INF-γ (class symbol)” value in the data set on IFN-γ production was “* (good down regulation of INF-γ (e.g., less than 100 IC50 pM))”.
On to `C=C1/C(=C\C=C2/CCC[C@@]3(C)C2CC[C@@H]3C(CCCC(C)(C)O)CCCC(C)(C)O)CC(O)C[C@@H]1O` (some centres unmarked) [Compound 1, 1,25-Dihydroxy-21-(3-hydroxy-3-methyl-butyl)-cholecalciferol, reference compound], for which the MTD in “in vivo” was 0.003 mg/kg. Besides, the “renin suppression activity compared with 1,25(OH)2D3” value in data set [2] was “comparable to that of 1,25(OH)2D3”. Also, the “VDR Binding” value on VDR was 38.0**. For the same compound, in the data set on HL-60 cells, the EC50 stood at 0.00034 µM. In addition, in the data set with IFN-γ production, the IC50 came out at 22 pM and the “down regulation of INF-γ (class symbol)” value was “* (good down regulation of INF-γ (e.g., less than 100 IC50 pM))”.
Take `C=C1/C(=C\C=C2/CCC[C@]3(C)[C@@H]([C@@H](CCCC(C)(C)O)CC[C@@H](O)C(C)(C)O)CC[C@@H]23)C[C@@H](O)C[C@@H]1O` [Compound 2, 1,25-Dihydroxy-21-(2R,3-dihydroxy-3-methyl-butyl)-20S-cholecalciferol]: the MTD in “in vivo” came to 0.03 mg/kg. Also, the IC50 in the data set on RT4 stood at 62 µM; with NHEK it was 37.2 µM; in the data set on ECV, 69.4 µM; in the data set with RT112, 1 µM; in the data set with IFN-γ production it was 549 pM. For the same compound, the “renin suppression activity compared with 1,25(OH)2D3” value in data set [2] is recorded as “more potent in suppressing renin expression than 1,25(OH)2D3”. In addition, the “VDR Binding” value on VDR is given as 0.95**. Besides, in the data set on HL-60 cells, the EC50 came out at 0.0093 µM.
With `C=C1/C(=C\C=C2/CCC[C@@]3(C)C2CC[C@@H]3[C@H](CC#CC(O)(C(F)(F)F)C(F)(F)F)CCCC(C)(C)O)CC(O)C[C@@H]1O` (stereo partly drawn) [Compound 4, 1,25-Dihydroxy-21-(3-hydroxy-3-trifluoromethyl-4-trifluoro-butynyl)-20S-cholecalciferol], the “renin suppression activity compared with 1,25(OH)2D3” value in [2] was “more potent in suppressing renin expression than 1,25(OH)2D3”.
Turning to `CC(C)(O)CCCC(CC#CC(O)(C(F)(F)F)C(F)(F)F)[C@H]1CCC2/C(=C/C=C3/CC(O)C[C@H](O)C3)CCC[C@@]21C` (stereo partly drawn) [Compound 5, 1,25-Dihydroxy-21-(3-hydroxy-3-trifluoromethyl-4-trifluoro-butynyl)-20R-19-nor-cholecalciferol], in [2], the “renin suppression activity compared with 1,25(OH)2D3” value is given as “comparable to that of 1,25(OH)2D3”.
For `CC(C)(O)CCC[C@@H](CC#CC(O)(C(F)(F)F)C(F)(F)F)[C@H]1CCC2/C(=C/C=C3/CC(O)C[C@H](O)C3)CCC[C@@]21C` (stereo partly drawn) [Compound 6, 1,25-Dihydroxy-21-(3-hydroxy-3-trifluoromethyl-4-trifluoro-butynyl)-20S-19-nor-cholecalciferol], the “renin suppression activity compared with 1,25(OH)2D3” value in data set [2] was “more potent in suppressing renin expression than 1,25(OH)2D3”.
The same measure, in the same setting: under `C=C1/C(=C\C=C2/CCC[C@@]3(C)C2CC[C@@H]3C(CC#CC(O)(C(F)(F)F)C(F)(F)F)CCCC(C)(C)O)CC(O)C[C@@H]1O` (stereo partly drawn) [Compound 11, 1,25-Dihydroxy-21-(3-hydroxy-3-trifluoromethyl-4-trifluorobutynyl)-20R-cholecalciferol] stands “comparable to that of 1,25(OH)2D3”.
`CC(C)(O)CCC[C@@H](CCC(=O)C(C)(C)O)[C@H]1CC[C@H]2/C(=C/C=C3C[C@@H](O)C[C@H](O)C3)CCC[C@]12C` [Compound 12, 1,25-Dihydroxy-20S-21-(3-hydroxy-3-methyl-butyl)-24-keto-19-nor-cholecalciferol] returned an MTD in “in vivo” of 0.03 mg/kg. Moreover, the half-maximal inhibitory concentration (IC50) was 2.6 µM in the data set with RT4, greater than 30 µM in the data set with RT112 and 2970 pM with IFN-γ production.
In the data set “in vivo”, `C=C1/C(=C\C=C2/CCC[C@]3(C)[C@@H]([C@@H](CCCC(C)(C)O)CCC(=O)C(C)(C)O)CC[C@@H]23)C[C@@H](O)C[C@@H]1O` [Compound 14, 1,25-Dihydroxy-20S-21-(3-hydroxy-3-methyl-butyl)-24-keto-cholecalciferol] had an MTD of 0.03 mg/kg. Moreover, the values for the IC50 with RT4, in the data set with RT112 and in the data set on IFN-γ production were 8.3 µM, 25.5 µM and 350 pM, respectively.
`CC(C)(O)CCC[C@@H](CC[C@@H](O)C(C)(C)O)[C@H]1CC[C@H]2/C(=C/C=C3C[C@@H](O)C[C@H](O)C3)CCC[C@]12C` [Compound 38, 1,25-Dihydroxy-21-(2R,3-dihydroxy-3-methyl-butyl)-20S-19-nor-cholecalciferol] gave an MTD in the data set “in vivo” greater than 0.3 mg/kg. The IC50 in the data set on RT4 was 72 µM; with NHEK, 57 µM; with HT 1376, greater than 100 µM; in the data set on ECV it was 99.2 µM; in the data set on RT112, 44 µM; with IFN-γ production, 3860 pM.
Turning to `[2H]C([2H])([2H])C(O)(CCC[C@@H](CC#CC(O)(C(F)(F)F)C(F)(F)F)C1CCC2/C(=C/C=C3C[C@@H](O)C[C@H](O)C3)CCC[C@@]21C)C([2H])([2H])[2H]` (stereo partly drawn) [Compound 39, 1,25-Dihydroxy-21(3-hydroxy-3-trifluoromethyl-4-trifluoro-butynyl)-26,27-hexadeutero-19-nor-20S-cholecalciferol], the MTD in the data set “in vivo” was 0.0003 mg/kg. Further, the values for the IC50 in the data set with RT4, in the data set on RT112 and in the data set on IFN-γ production were 2.2 µM, 7 µM and 62 pM, respectively.
In the data set “in vivo”, `[2H]C([2H])([2H])C(O)(CCC[C@@H](CC#CC(O)(C(F)(F)F)C(F)(F)F)C1CCC2/C(=C/C=C3/C[C@@H](O)C[C@H](O)C3=C)CCC[C@@]21C)C([2H])([2H])[2H]` (stereo partly drawn) [Compound 40, 1,25-Dihydroxy-21-(3-hydroxy-3-trifluoromethyl-4-trifluoro-butynyl)-26,27-hexadeutero-20S-cholecalciferol] registered an MTD of 0.0001 mg/kg. The concentration for half-maximal inhibition (IC50) in the data set with RT4 worked out at 2.2 µM; with RT112, 6.4 µM; in the data set on IFN-γ production, 62 pM.
Regarding `COc1c(C)c2c(c(O)c1C/C=C(\C)CCC(=O)OCCN1CCOCC1)C(=O)OC2` [Mycophenolate Mofetil, reference compound], the “upregulation of ILT3 expression” value in [1] was “fail to upregulate ILT3 expression at any concentration tested”.
